# According to patent publication US9186354B2, “Pyrrolidine derived β3 adrenergic receptor agonists” (Merck Sharp & Dohme Corp., priority 2010, dated 2015):
# pEC50: −log10 of the molar value.
# Target: T1, human β3 adrenergic receptor (Homo sapiens, UniProt P13945)
# T1 construct: stably transfected with the cloned β-adrenergic receptor (β1, β2 or β3); expressed in transfected cells; host or cells: Chinese hamster ovary (CHO) cells, stably transfected
# Experiment: β3AR-cAMP functional assay in CHO cells stably transfected with cloned β3-adrenergic receptor (LANCE)
# Format: cell-based
# Details: Table 2; Beta-3 agonist in vitro functional assay, given as ranges; read-out: Human β3 Agonist Functional Activity
# Protocol: Functional Assay: cAMP production in response to ligand is measured according to Barton, et al. (1991, Agonist-induced desensitization of D2 dopamine receptors in human Y-79 retinoblastoma cells. Mol. Pharmacol. […]) modified as follows. cAMP production is measured using a homogenous time-resolved fluorescence resonance energy transfer immunoassay (LANCE™, Perkin Elmer) according to the manufacture's instructions. Chinese hamster ovary (CHO) cells, stably transfected with the cloned β-adrenergic receptor (β1, β2 or β3) are harvested after 3 days of subculturing. Harvesting of cells is done with Enzyme-free Dissociation Media (Specialty Media). Cells are then counted and resuspended in assay buffer (Hank's Balanced salt solution supplemented with 5 mM HEPES, […]) containing a phosphodiesterase inhibitor (IBMX, 0.6 mM). The reaction is initiated by mixing 6,000 cells in 6 μL with 6 μL Alexa Fluor labeled cAMP antibody (LANCE™ kit) which is then added to an assay well containing 12 μL of compound (diluted in assay buffer to 2× final concentration). The reaction proceeds for 30 minutes at room temperature and is terminated by the addition of 24 ul detection buffer (LANCE™ kit). The assay plate is then incubated for 1 hour at room temperature and time-resolved fluorescence measured on a Perkin Elmer Envision reader or equivalent. The unknown cAMP level is determined by comparing fluorescence levels to a cAMP standard curve.
# The non-selective, full agonist […] ligand isoproterenol is used at all three receptors to determine maximal stimulation. The human β3 adrenergic receptor (AR) selective ligand (S)—N-[4-[2-[[2-hydroxy-3-(4-hydroxyphenoxy)propyl]amino]ethyl]-phenyl]-4-iodobenzenesulfonamide is used as a control in all assays. Isoproterenol is titrated at a final concentration in the assay of 10^−10 M to 10^−5 M and the selective ligand (S)—N-[4-[2-[[2-hydroxy-3-(4-hydroxyphenoxy)propyl]amino]ethyl]phenyl]-4-iodobenzenesulfonamide is titrated at the β3 receptor at concentration of 10^−10 M to 10^−5 M. Unknown ligands are titrated at all 3 β-adrenergic receptor subtypes at a final concentration in the assay of 10^−10 M to 10^−5 M to determine the EC50. The EC50 is defined as the concentration of compound that gives 50% activation of its own maximum.
# T1 sequence (P13945 whole entry): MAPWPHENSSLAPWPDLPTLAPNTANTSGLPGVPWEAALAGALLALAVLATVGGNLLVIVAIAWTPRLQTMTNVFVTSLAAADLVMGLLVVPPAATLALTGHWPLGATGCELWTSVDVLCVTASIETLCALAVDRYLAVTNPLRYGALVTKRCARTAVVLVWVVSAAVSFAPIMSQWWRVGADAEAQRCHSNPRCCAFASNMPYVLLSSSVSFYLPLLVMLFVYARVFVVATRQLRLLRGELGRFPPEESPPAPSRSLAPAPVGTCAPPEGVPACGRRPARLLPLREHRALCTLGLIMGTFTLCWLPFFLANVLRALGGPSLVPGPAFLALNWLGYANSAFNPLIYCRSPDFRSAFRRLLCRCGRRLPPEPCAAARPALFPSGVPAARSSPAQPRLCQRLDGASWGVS
row,Structure (SMILES),pEC50
1,"O=C(c1ccc(C[C@@H]2CC[C@H]([C@H](O)c3ccccc3)N2)cn1)N1CCC2(CCOC2=O)CC1 [Example 8, 8-{[5-({(2S, 5R)-5-[(R)-hydroxy(phenyl)methyl]pyrrolidin-2-yl}methyl)pyridin-2-yl]carbonyl}-2-oxa-8-azaspiro[4.5]decan-1-one]",7.00 to 7.96
2,"Cn1nnnc1[C@H]1[C@@H]2CN(C(=O)c3ccc(C[C@@H]4CC[C@H]([C@H](O)c5ccccc5)N4)cn3)C[C@@H]21 [Example 9, (R)-{(2R, 5S)-5-[(6-{[6-(1-methyl-1H-tetrazol-5-yl)-3-azabicyclo[3.1.0]hex-3-yl]carbonyl}pyridin-3-yl)methyl]pyrrolidin-2-yl)(phenyl)methanol]",7.00 to 7.96
3,"O=C(c1ccc(C[C@@H]2CC[C@H]([C@H](O)c3ccccc3)N2)cn1)N1C[C@@H]2[C@H](C1)[C@H]2c1nnc(-c2cnccn2)o1 [Example 13, (R)-phenyl{(2R, 5S)-5-[(6-{[6-(5-pyrazin-2-yl-1,3,4-oxadiazol-2-yl)-3-azabicyclo[3.1.0]hex-3-yl]carbonyl}pyridin-3-yl)methyl]pyrrolidin-2-yl)methanol]",> 8.00
4,O=C(c1ccc(C[C@@H]2CC[C@H]([C@H](O)c3ccccc3)N2)cn1)N1C[C@@H]2[C@H](C1)[C@H]2c1nnnn1CC(F)(F)F [Example 10],7.00 to 7.96
5,"O=C(c1ccc(C[C@@H]2CC[C@H]([C@H](O)c3ccccc3)N2)cn1)N1CCN(Cc2nnn(CC(F)(F)F)n2)CC1 [Example 14, (R)-phenyl[(2R, 5S)-5-({6-[(4-{[2-(2,2,2-trifluoroethyl)-2H-tetrazol-5-yl]methyl}piperazin-1-yl)carbonyl]pyridin-3-yl}methyl)pyrrolidin-2-yl]methanol]",7.00 to 7.96
6,"O=C(c1ccc(C[C@@H]2CC[C@H]([C@H](O)c3ccccc3)N2)cn1)N1C[C@@H]2[C@H](C1)[C@H]2c1nnco1 [Example 11, (R)-{(2R, 5S)-5-[(6-{[6-(1,3,4-oxadiazol-2-yl)-3-azabicyclo[3.1.0]hex-3-yl]carbonyl}pyridin-3-yl)methyl]pyrrolidin-2-yl)(phenyl)methanol]",7.00 to 7.96
7,"CCc1nnc([C@H]2[C@@H]3CN(C(=O)c4ccc(C[C@@H]5CC[C@H]([C@H](O)c6ccccc6)N5)cn4)C[C@@H]32)o1 [Example 12, (R)-{(2R, 5S)-5-[(6-{[6-(5-ethyl-1,3,4-oxadiazol-2-yl)-3-azabicyclo[3.1.0]hex-3-yl]carbonyl}pyridin-3-yl)methyl]pyrrolidin-2-yl)(phenyl)methanol]",7.00 to 7.96

# Same assay, conditions: cAMP production, CHO cells expressing human β3 AR; read-out: human β3 functional activity
row,Structure (SMILES),pEC50
1,O=C(Nc1ccc(C[C@@H]2CC[C@H]([C@H](O)c3ccccc3)N2)cn1)[C@@H]1CCc2scnc21 [Example 1],7.69
2,"O=C(c1ccc(C[C@@H]2CC[C@H]([C@H](O)c3ccccc3)N2)cn1)N1CCC(c2nnnn2CC(F)(F)F)CC1 [Example 5, (R)-Phenyl-(2R,5S)-5-{[6-({4-[1-(2,2,2-trifluoroethyl)-1H-tetrazol-5-yl]piperidin-1-yl}carbonyl-pyridin-3-yl]methyl}pyrrolidin-2-yl)methanol]",6.00 to 7.00
3,"O=C(c1ccc(C[C@@H]2CC[C@H]([C@H](O)c3ccccc3)N2)cn1)N1C[C@@H]2C(n3cnnn3)[C@@H]2C1 (stereo partly drawn) [Example 6, (R)-phenyl[(2R,5S)-5-[(6-{[(1R,5S,6S)-6-(1H-tetrazol-1-yl)-3-azabicyclo[3.1.0]hex-3yl]carbonyl}pyridin-3-yl)methyl]pyrrolidine-2-yl]methanol]",7.00 to 7.96
4,"O=C(c1ccc(C[C@@H]2CC[C@H]([C@H](O)c3ccccc3)N2)cn1)N1CCN(Cc2ccccn2)CC1 [Example 7, (R)-phenyl[(2R,5S)-5-[(6-{[4-(pyridin-2-ylmethyl)piperazin-1-yl]carbonyl}pyridin-3-yl)methyl]pyrrolidin-2-yl]methanol]",6.00 to 7.00

# Target: T2, β3AR (Rattus norvegicus, UniProt P26255)
# T2 construct: Following intravenous administration to rats; host or cells: live rats (endogenous receptor, bladder)
# Experiment: not given
# Details: rats, intravenous administration; cited from earlier work
# T2 sequence (P26255 whole entry): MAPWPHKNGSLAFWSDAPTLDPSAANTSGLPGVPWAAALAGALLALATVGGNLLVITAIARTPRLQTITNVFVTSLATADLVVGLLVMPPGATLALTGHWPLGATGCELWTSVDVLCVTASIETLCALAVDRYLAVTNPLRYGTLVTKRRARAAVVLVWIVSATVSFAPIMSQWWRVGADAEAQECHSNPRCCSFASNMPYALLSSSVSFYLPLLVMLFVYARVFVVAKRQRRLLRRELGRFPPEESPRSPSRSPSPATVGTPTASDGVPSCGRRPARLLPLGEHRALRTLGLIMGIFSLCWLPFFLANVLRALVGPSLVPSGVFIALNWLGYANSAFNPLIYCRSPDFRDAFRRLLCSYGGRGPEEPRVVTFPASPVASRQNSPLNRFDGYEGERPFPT
row,Structure (SMILES),bladder pressure
1,C[C@H](Cc1ccc2c(c1)OC(C(=O)[O-])(C(=O)[O-])O2)NC[C@H](O)c1cccc(Cl)c1.[Na+].[Na+] [CL316243],reduces bladder pressure

# Same assay, conditions: rats, intravenous administration; prolongation of micturition interval without increasing residual urine volume; cited from earlier work
row,Structure (SMILES),bladder capacity (cystometric studies)
1,C[C@H](Cc1ccc2c(c1)OC(C(=O)[O-])(C(=O)[O-])O2)NC[C@H](O)c1cccc(Cl)c1.[Na+].[Na+] [CL316243],increases bladder capacity

# Target: T1, human β3 adrenergic receptor
# Experiment: β3AR-cAMP functional assay in CHO cells stably transfected with cloned β3-adrenergic receptor (LANCE)
# Format: cell-based
# Details: Table 1; determined with β3AR-cAMP assay, given as ranges; read-out: Human β3 Binding
row,Structure (SMILES),pEC50
1,"O=C(Nc1ccc(C[C@@H]2CC[C@H]([C@H](O)c3ccccc3)N2)cn1)C1CCc2nccc(=O)n21 (stereo partly drawn) [Example 2, N-[5-({(2S, 5R)-5-[(R)-hydroxy(phenyl)methyl]pyrrolidin-2-yl}methyl)pyridin-2-yl]-4-oxo-4,6,7,8-tetrahydropyrrolo[1,2-a]pyrimidine-6-carboxamide]",7.00 to 7.96
2,"O=C(Cc1nnc(-c2ccccc2)[nH]1)Nc1ccc(C[C@@H]2CC[C@H]([C@H](O)c3ccccc3)N2)cn1 [Example 4, N-[5-([(2S, 5R)-5-[(R)-hydroxy(phenyl)methyl]pyrrolidin-2-yl}methyl)pyridin-2-yl]-2-(5-phenyl-4H-1,2,4-triazol-3-yl)acetamide]",7.00 to 7.96
3,"O=C(Cn1ncccc1=O)Nc1ccc(C[C@@H]2CC[C@H]([C@H](O)c3ccccc3)N2)cn1 [Example 3, N-[5-({(2S, 5R)-5-[(R)-hydroxy(phenyl)methyl]pyrrolidin-2-yl}methyl)pyridin-2-yl]-2-(6-oxopyridazin-1(6H)-yl)acetamide]",6.00 to 7.00
